From patent US20250152586A1, “PHARMACEUTICAL COMPOSITION FOR RELIEVING OR TREATING PAIN BY REGULATING CEREBELLAR GLIAL CELLS AND METHOD FOR RELIEVING OR TREATING PAIN” (Seoul National University R&DB Foundation, priority 2021, published 2025) come the findings set out here.

Where a name gives a salt, the structure may show the parent alone.

For data set [1], the system named is cerebellar glial cell-specific alpha-1 adrenergic receptors. The experiment in a line: Capsaicin-induced pain licking time after knockdown with cerebellar glial cell-specific shRNA. It counts as in vivo. Particulars: Cre-dependent shRNA virus in Glast-Cre/ERT mice after tamoxifen, vs control; FIG. 5B. The method, then: Using non-genetically modified wild-type mice, a specific chemogenetic inhibitory virus which targets cerebellar glial cells and locus coeruleus cells was injected. To specifically remove alpha1-adrenergic receptors from cerebellar glial cells, using Glast-Cre (Tg(Slcla3-Cre/ERT) 1Nat/J), a genetically modified mouse in which Cre is expressed by tamoxifen specifically in only cerebellar glial cells, Cre was expressed by injecting tamoxifen, and then a virus that removes the alpha1-adrenergic receptor in a Cre-dependent manner was injected.
(§1) To confirm the pain pattern caused by capsaicin, the degree of pain was recorded for a total of 30 minutes, 10 minutes before the injection of capsaicin and 20 minutes after the injection of capsaicin (FIG. 1B).
As another approach to prevent the activity of cerebellar glial cells, alpha-1 adrenergic receptors were inhibited using cerebellar glial cell-specific shRNA. To specifically remove alpha1-adrenergic receptors from cerebellar glial cells, using Glast-Cre (Tg(Slcla3-Cre/ERT) 1Nat/J), a genetically modified mouse in which Cre is expressed by tamoxifen specifically in only cerebellar glial cells, Cre was expressed by injecting tamoxifen, and then a virus that removes the alpha1-adrenergic receptor in a Cre-dependent manner was injected. Glast-cre (Tg(Slcla3-cre/ERT) 1 Nat/J) mice were purchased from Jackson Labs, USA. […]

Data set [2] can be described thus: Basic motor function, ledge test and gait test. Particulars: vs control. Type of data set: in vivo, mice. How it is done: To confirm whether basic behavioral patterns were affected when the activity of cerebellar glial cells was regulated, basic movements were measured by placing the mice in a chamber measuring 40 cm in length and width (FIG. 1D).
A ledge test was first performed to measure motor coordination. […] A score closer to 3 was determined to be normal, and a score closer to 0 was determined to be abnormal motor coordination. (FIG. 1E, ledge test).
A gait test was secondly performed to measure motor coordination. An experimenter measured the mouse's walking pattern without being observed. […] A score closer to 3 was determined to be normal, and a score closer to 0 was determined to be abnormal motor coordination (FIG. 1E, gait test).

The subject of data set [3] is alpha-1 adrenergic receptors in cerebellar glial cells. Description: Capsaicin-induced pain licking time after local injection of prazosin into the cerebellum. It counts as in vivo, mice. Particulars: prazosin 100 μM, 0.5 μl, local into cerebellum (vermis lobule IV/V) via cannula, about 10 minutes after, vs control; FIG. 4B. The method, then: (§2) 1-2. Drug Injection For chemogenetic inhibition of cerebellar glial cells, CNO was injected intraperitoneally at a dose of 5 to 10 mg/kg. For chemogenetic inhibition of locus coeruleus cells, 0.5 μl of 1 mM C21 was directly injected into the cerebellar cortex through a cannula installed in cerebellar vermis lobule IV/V. Prazosin (100 μM, 0.5 μl) and muscimol (100 μM, 0.5 μl), which are alpha-1 adrenergic receptor inhibitors or GABAA agonists, were injected through cannulas targeting the cerebellar cortex and cerebellar nuclei, respectively.
as §1
Alpha-1 adrenergic receptors in cerebellar glial cells are activated by norepinephrine. To inhibit this, prazosin (100 μM, 0.5 μl), an alpha-1 adrenergic receptor antagonist, was locally injected only into the cerebellum (vermis lobule IV/V) via a cannula. Thereafter, behavioral experiments were performed about 10 minutes after the alpha-1 adrenergic receptors were inhibited (FIG. 4A).

The test system of data set [4] is GABAA receptor. Description: Capsaicin-induced pain licking time after local injection of muscimol into the deep cerebellar nuclei. Type of data set: in vivo, mice. Particulars: muscimol 100 μM, 0.5 μl, local into deep cerebellar nuclei (DCN) via cannula, 10 minutes after, vs control; FIG. 6B. How it is done: as §2, §1
Information processed in the cerebellar cortex converges to the cerebellar nuclei. To investigate the pain pattern induced by capsaicin when the cerebellar nuclei, the target of cerebellar output, were inhibited, the deep cerebellar nuclei (DCN) region was locally administered muscimol (100 μM, 0.5 μl), an inhibitory neurotransmitter GABAA receptor agonist, through a cannula. The licking time was measured 10 minutes after the injection when the effect of muscimol appeared (FIG. 6A).

The target of data set [5] is T1, hM4D (Gi) expressed in cerebellar glial cells (vermis lobule IV/V) (Homo sapiens, UniProt P08173, A203G/Y113C).
T1 construct: expressed in transfected cells; host or cells: mouse cerebellar glial cells (vermis lobule IV/V), transduced in vivo by virus
T1 sequence (P08173 1-479 Y113C/A203G): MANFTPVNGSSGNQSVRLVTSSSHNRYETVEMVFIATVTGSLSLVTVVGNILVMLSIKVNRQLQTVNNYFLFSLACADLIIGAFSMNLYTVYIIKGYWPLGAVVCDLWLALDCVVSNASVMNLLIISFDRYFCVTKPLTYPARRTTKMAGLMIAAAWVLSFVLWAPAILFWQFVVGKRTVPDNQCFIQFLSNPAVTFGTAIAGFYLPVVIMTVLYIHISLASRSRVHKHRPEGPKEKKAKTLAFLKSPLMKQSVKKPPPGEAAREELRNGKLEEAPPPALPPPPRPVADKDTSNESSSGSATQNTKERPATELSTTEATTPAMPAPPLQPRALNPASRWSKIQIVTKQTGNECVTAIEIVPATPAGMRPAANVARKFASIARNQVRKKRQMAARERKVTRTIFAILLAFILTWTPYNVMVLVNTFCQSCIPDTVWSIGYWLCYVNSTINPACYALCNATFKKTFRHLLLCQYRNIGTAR
Description: Capsaicin-induced pain licking time with chemogenetic inhibition of cerebellar glial cells (hM4D (Gi) activated by CNO). The settings on record: CNO intraperitoneal 5 to 10 mg/kg, about 1 hour after, vs control, FIG. 2B. It counts as in vivo, mice.
Description: Using non-genetically modified wild-type mice, a specific chemogenetic inhibitory virus which targets cerebellar glial cells was injected. […] Therefore, CNO, an agonist capable of activating the corresponding virus, was injected intraperitoneally at a dose of 5 to 10 mg/kg. Behavioral experiments were performed about 1 hour after glial cells were inhibited (FIG. 2A).

In data set [6] the target is T2, hM4D (Gi) expressed in locus coeruleus cells (Homo sapiens, UniProt P08173, A203G/Y113C).
T2 construct: expressed in transfected cells; host or cells: mouse locus coeruleus cells, transduced in vivo by virus; agonist C21 applied at their axon terminals in the cerebellar cortex
T2 sequence (P08173 1-479 Y113C/A203G): T1 sequence (P08173 1-479 Y113C/A203G)
The experiment in a line: Capsaicin-induced pain licking time with chemogenetic inhibition of the axon terminals of locus coeruleus cells in the cerebellum (hM4D (Gi) activated by C21). It counts as in vivo, mice. The settings on record: 0.5 μl of 1 mM C21 into cerebellar cortex via cannula (vermis lobule IV/V), hM4D (Gi) in LC, about 10 minutes after, vs control; FIG. 3B. How it is done: as §2, §1
Using non-genetically modified wild-type mice, a specific chemogenetic inhibitory virus which targets locus coeruleus cells was injected. […] Further, in this case, to confirm that the inhibition of the axon terminals of the locus coeruleus only affected the pain pattern, basic motor function was measured using the ledge test and gait test described above in Example 1-3. […]

As for “shRNA: Cre-dependent cerebellar glial cell-specific shRNA (534-558) against alpha-1 adrenergic receptor, GAGCCACACTTAGCTAACCATTTCA (guide GAGCCACACUUAGCUAACCAUUUCA)”, in data set [1], the “licking time (pain induced by capsaicin)” value is listed as “significantly reduced”. `COc1cc2nc(N3CCN(C(=O)c4ccco4)CC3)nc(N)c2cc1OC` [prazosin, Prazosin hydrochloride]: the “basic motor performance (ledge test and gait test)” value (“basic motor performance” for short) in data set [2] (prazosin 100 μM, 0.5 μl, local into cerebellum, FIG. 4C) is given as “no significance difference”. In data set [3], the “licking time (pain induced by capsaicin)” value is “significantly reduced”. On to `NCc1cc(=O)[nH]o1` [muscimol, Muscimol], for which the “basic motor performance” value in data set [2] (muscimol 100 μM, 0.5 μl, local into DCN, FIG. 6C) is listed as “no significance difference”. The “licking time (pain induced by capsaicin)” value in data set [4] is on record as “significantly reduced”. Consider `C[N+]1([O-])CCN(C2=Nc3cc(Cl)ccc3Nc3ccccc32)CC1.Cl.Cl` [CNO, Clozapine N-oxide (CNO) dihydrochloride], for which the “licking time (pain induced by capsaicin)” value in data set [5] is “significantly reduced”.

Regarding `Cl.Cl.c1ccc2c(c1)N=C(N1CCNCC1)c1ccccc1N2` [C21, DREADD agonist 21(Compound 21)], the “basic motor performance” value in data set [2] (0.5 μl of 1 mM C21 into cerebellar cortex, hM4D (Gi) in LC, FIG. 3C) was “no significance difference”. In addition, the “licking time (pain induced by capsaicin)” value in data set [6] was “significantly reduced”.
